We go through 20 molecules from US12612380B2, “Non-lysosomal glucosylceramidase inhibitors and uses thereof” (ALECTOS THERAPEUTICS INC., priority 2019, dated 2026).

Where two headings read alike, the source gives them in different places.

For assay [1], the target named is T1, GBA2 (Homo sapiens, UniProt Q9HCG7).
T1 sequence (Q9HCG7 1-927): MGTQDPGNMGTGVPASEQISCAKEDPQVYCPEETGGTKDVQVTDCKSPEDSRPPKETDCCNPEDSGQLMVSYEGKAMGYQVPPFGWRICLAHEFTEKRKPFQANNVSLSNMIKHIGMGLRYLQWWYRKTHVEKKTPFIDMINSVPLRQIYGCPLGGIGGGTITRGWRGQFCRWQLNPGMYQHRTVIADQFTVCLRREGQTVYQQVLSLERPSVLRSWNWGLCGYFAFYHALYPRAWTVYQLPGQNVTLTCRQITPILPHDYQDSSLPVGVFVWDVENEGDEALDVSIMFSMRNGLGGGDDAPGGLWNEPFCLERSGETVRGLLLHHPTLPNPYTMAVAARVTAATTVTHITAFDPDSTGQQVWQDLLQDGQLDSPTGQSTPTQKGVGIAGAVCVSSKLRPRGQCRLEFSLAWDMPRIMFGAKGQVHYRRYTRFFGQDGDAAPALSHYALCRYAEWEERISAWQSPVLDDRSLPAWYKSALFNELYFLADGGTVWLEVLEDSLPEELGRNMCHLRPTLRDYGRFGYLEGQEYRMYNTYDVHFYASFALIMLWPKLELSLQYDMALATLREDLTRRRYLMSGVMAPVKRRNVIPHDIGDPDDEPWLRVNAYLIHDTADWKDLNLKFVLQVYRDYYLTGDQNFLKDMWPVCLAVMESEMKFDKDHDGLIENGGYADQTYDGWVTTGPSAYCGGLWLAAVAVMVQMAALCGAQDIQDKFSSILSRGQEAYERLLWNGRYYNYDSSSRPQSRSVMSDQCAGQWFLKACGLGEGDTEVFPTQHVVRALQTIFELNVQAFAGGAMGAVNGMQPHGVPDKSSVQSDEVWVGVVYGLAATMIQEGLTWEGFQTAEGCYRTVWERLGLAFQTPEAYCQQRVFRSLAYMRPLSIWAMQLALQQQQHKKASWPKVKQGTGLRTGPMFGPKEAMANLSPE
Description: Binding specificity (selectivity) for GBA2 over other enzymes. The assay is classed as biochemical. Conditions: compared to a suitable reference compound, e.g. NB-DNJ (miglustat) or AMP-DNM. An excerpt: In some embodiments, one or more of the compounds according to the invention may specifically bind a GBA2. In alternative embodiments, one or more of the compounds according to the invention may specifically bind the active site of a GBA2. […] In alternative embodiments, one or more of the compounds according to the invention may specifically bind the human non-lysosomal glucosylceramidase (GBA2) over the human lysosomal glucosylceramidase (GCase) and/or the human cytosolic glucosylceramidase (GBA3). In alternative embodiments, one or more of the compounds according to the invention may specifically bind the human non-lysosomal glucosylceramidase (GBA2) over the human glucosylceramide synthase (GCS). In alternative embodiments, one or more of the compounds according to the invention may specifically bind the human non-lysosomal glucosylceramidase (GBA2) over an intestinal alpha-glucosidase, where the intestinal alpha-glucosidase may be a sucrase-isomaltase or a maltase-glucoamylase.

For assay [2], the target named is T1, GBA2. Kind of assay: Determination of IC50 values for inhibition of GBA2 in cell lysate. Format: biochemical. Further details: host or cells: HEK293T (lentiviral transduction, puromycin selection); used as cellular homogenate. An outline of the steps:
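Homogenate of HEK293T cells stably overexpressing human GBA2 (0.083 mg/mL final), pretreated with 20 μM GCase inhibitor, preincubated 5 min at 37 °C with compound, then reacted 20 min with 250 μM 4-methylumbelliferyl-β-D-glucopyranoside at pH 5.5 (citrate-phosphate, 1% C10E6). Fluorescence read at 365/450 nm after alkaline stop; IC50 from log-inhibitor curve fit.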

The mark [3] stands for this setting: cellular homogenate of HEK293T cells overexpressing human GBA2, 250 μM 4-methylumbelliferone-β-D glucopyranoside, pH 5.5, 37° C., GCase inhibitor present, read-out: GBA2 IC50.

What is called IC50 is the concentration that gives 50% inhibition. Take `C[C@@H]1[C@@H](O)[C@H](O)[C@@H](O)CN1CCc1c(F)cc(C(F)(F)F)cc1F` [Example 55, (2R,3R,4R,5S)-1-(2,6-difluoro-4-(trifluoromethyl)phenethyl)-2-methylpiperidine-3,4,5-triol]: the “binding specificity (IC50 or Ki of other molecule / GBA2)” value on GBA2 [1] is “enhanced binding specificity”. The IC50 at GBA2 [2] was 100 to 1000 nM.
Regarding `C[C@@H]1[C@@H](O)[C@H](O)[C@@H](O)CN1CCc1c(F)cc(N2CCCC2)cc1F` [Example 56, (2R,3R,4R,5S)-1-(2,6-difluoro-4-(pyrrolidin-1-yl)phenethyl)-2-methylpiperidine-3,4,5-triol], the “binding specificity (IC50 or Ki of other molecule / GBA2)” value at GBA2 [1] is on record as “enhanced binding specificity”. In addition, on GBA2 [2] (setting [3]), the IC50 was less than 100 nM.
With `C[C@@H]1[C@@H](O)[C@H](O)[C@@H](O)CN1CCc1c(F)cc(N2CCCCC2)cc1F` [Example 57, (2R,3R,4R,5S)-1-(2,6-difluoro-4-(piperidin-1-yl)phenethyl)-2-methylpiperidine-3,4,5-triol], the “binding specificity (IC50 or Ki of other molecule / GBA2)” value on GBA2 [1] is given as “enhanced binding specificity”. Besides, the concentration for half-maximal inhibition (IC50) on GBA2 [2] (setting [3]) is less than 100 nM.
As for `C[C@@H]1[C@@H](O)[C@H](O)[C@@H](O)CN1CCc1c(F)cc(N2CCOCC2)cc1F` [Example 58, (2R,3R,4R,5S)-1-(2,6-difluoro-4-morpholinophenethyl)-2-methylpiperidine-3,4,5-triol], the “binding specificity (IC50 or Ki of other molecule / GBA2)” value at GBA2 [1] is “enhanced binding specificity”. Moreover, the IC50 on GBA2 [2] (setting [3]) was less than 100 nM.
For `CCCCOc1cc(F)c(CCN2C[C@H](O)[C@@H](O)[C@H](O)[C@H]2C)c(F)c1` [Example 59, (2R,3R,4R,5S)-1-(4-butoxy-2,6-difluorophenethyl)-2-methylpiperidine-3,4,5-triol], at GBA2 [1], the “binding specificity (IC50 or Ki of other molecule / GBA2)” value was “enhanced binding specificity”. The IC50 at GBA2 [2] was less than 100 nM.
With `C[C@@H]1[C@@H](O)[C@H](O)[C@@H](O)CN1CCc1c(F)cc(OCC2CC2)cc1F` [Example 60, (2R,3R,4R,5S)-1-(4-(cyclopropylmethoxy)-2,6-difluorophenethyl)-2-methylpiperidine-3,4,5-triol], at GBA2 [1], the “binding specificity (IC50 or Ki of other molecule / GBA2)” value is on record as “enhanced binding specificity”. The 50% inhibitory concentration (IC50) on GBA2 [2] was less than 100 nM.
In the case of `C[C@@H]1[C@@H](O)[C@H](O)[C@@H](O)CN1CCc1cc2c(cc1F)OCO2` [Example 71, (2R,3R,4R,5S)-1-(2-(6-fluorobenzo[d][1,3]dioxol-5-yl)ethyl)-2-methylpiperidine-3,4,5-triol], the “binding specificity (IC50 or Ki of other molecule / GBA2)” value at GBA2 [1] is reported as “enhanced binding specificity”. Moreover, on GBA2 [2], the IC50 was less than 100 nM.
For the molecule `C[C@@H]1[C@@H](O)[C@H](O)[C@@H](O)CN1CCc1ccc2c(c1)OCCO2` [Example 73, (2R,3R,4R,5S)-1-(2-(2,3-dihydrobenzo[b][1,4]dioxin-6-yl)ethyl)-2-methylpiperidine-3,4,5-triol], at GBA2 [1], the “binding specificity (IC50 or Ki of other molecule / GBA2)” value is on record as “enhanced binding specificity”. At GBA2 [2], the IC50 was less than 100 nM.
As for `Cc1ccccc1N1CC[C@H](CN2C[C@H](O)[C@@H](O)[C@H](O)[C@H]2C)C1` [Example 114, (2R,3R,4R,5S)-2-methyl-1-(((R)-1-(o-tolyl)pyrrolidin-3-yl)methyl)piperidine-3,4,5-triol], the “binding specificity (IC50 or Ki of other molecule / GBA2)” value at GBA2 [1] is reported as “enhanced binding specificity”. Besides, the half-inhibitory concentration (IC50) on GBA2 [2] (setting [3]) was less than 100 nM.
Regarding `C[C@@H]1[C@@H](O)[C@H](O)[C@@H](O)CN1C[C@H]1CCN(c2ccccc2C(F)(F)F)C1` [Example 115, (2R,3R,4R,5S)-2-methyl-1-(((R)-1-(2-(trifluoromethyl)phenyl)pyrrolidin-3-yl)methyl)piperidine-3,4,5-triol], the “binding specificity (IC50 or Ki of other molecule / GBA2)” value on GBA2 [1] is “enhanced binding specificity”. Moreover, the IC50 on GBA2 [2] (setting [3]) was less than 100 nM.
Regarding `C[C@@H]1[C@@H](O)[C@H](O)[C@@H](O)CN1C[C@H]1CCN(c2ccccc2F)C1` [Example 116, (2R,3R,4R,5S)-1-(((R)-1-(2-fluorophenyl)pyrrolidin-3-yl)methyl)-2-methylpiperidine-3,4,5-triol], the “binding specificity (IC50 or Ki of other molecule / GBA2)” value on GBA2 [1] was “enhanced binding specificity”. Besides, the 50% inhibitory concentration (IC50) at GBA2 [2] (setting [3]) is less than 100 nM.
As to `C[C@@H]1[C@@H](O)[C@H](O)[C@@H](O)CN1C[C@H]1CCN(c2cccc(F)c2)C1` [Example 117, (2R,3R,4R,5S)-1-(((R)-1-(3-fluorophenyl)pyrrolidin-3-yl)methyl)-2-methylpiperidine-3,4,5-triol], the “binding specificity (IC50 or Ki of other molecule / GBA2)” value at GBA2 [1] is “enhanced binding specificity”. Further, the 50% inhibitory concentration (IC50) on GBA2 [2] (setting [3]) was less than 100 nM.
As for `C[C@@H]1[C@@H](O)[C@H](O)[C@@H](O)CN1C[C@H]1CCN(c2ccccc2OC(F)(F)F)C1` [Example 118, (2R,3R,4R,5S)-2-methyl-1-(((R)-1-(2-(trifluoromethoxy)phenyl)pyrrolidin-3-yl)methyl)piperidine-3,4,5-triol], on GBA2 [1], the “binding specificity (IC50 or Ki of other molecule / GBA2)” value is reported as “enhanced binding specificity”. For the same molecule, on GBA2 [2] (setting [3]), the half-maximal inhibitory concentration (IC50) is less than 100 nM.
Regarding `C[C@@H]1[C@@H](O)[C@H](O)[C@@H](O)CN1C[C@H]1CCN(c2cccc(C(F)(F)F)n2)C1` [Example 119, (2R,3R,4R,5S)-2-methyl-1-(((R)-1-(6-(trifluoromethyl)pyridin-2-yl)pyrrolidin-3-yl)methyl)piperidine-3,4,5-triol], on GBA2 [1], the “binding specificity (IC50 or Ki of other molecule / GBA2)” value is “enhanced binding specificity”. In addition, the IC50 on GBA2 [2] (setting [3]) was less than 100 nM.
In the case of `C[C@@H]1[C@@H](O)[C@H](O)[C@@H](O)CN1C[C@H]1CCN(c2ncccc2C(F)(F)F)C1` [Example 120, (2R,3R,4R,5S)-2-methyl-1-(((R)-1-(3-(trifluoromethyl)pyridin-2-yl)pyrrolidin-3-yl)methyl)piperidine-3,4,5-triol], the “binding specificity (IC50 or Ki of other molecule / GBA2)” value at GBA2 [1] is “enhanced binding specificity”. Besides, the IC50 on GBA2 [2] (setting [3]) was less than 100 nM.
For the molecule `C[C@@H]1[C@@H](O)[C@H](O)[C@@H](O)CN1C[C@H]1CCN(c2cccc3scnc23)C1` [Example 129, (2R,3R,4R,5S)-1-(((R)-1-(benzo[d]thiazol-4-yl)pyrrolidin-3-yl)methyl)-2-methylpiperidine-3,4,5-triol], the “binding specificity (IC50 or Ki of other molecule / GBA2)” value at GBA2 [1] is recorded as “enhanced binding specificity”. The 50% inhibitory concentration (IC50) at GBA2 [2] (setting [3]) was less than 100 nM.
The matching figures for `C[C@@H]1[C@@H](O)[C@H](O)[C@@H](O)CN1C[C@@H]1CCN(c2ccccc2C(F)(F)F)C1` [Example 131, (2R,3R,4R,5S)-2-methyl-1-(((S)-1-(2-(trifluoromethyl)phenyl)pyrrolidin-3-yl)methyl)piperidine-3,4,5-triol]: “enhanced binding specificity” and less than 100 nM.
With `Cc1ccccc1N1CCC[C@H](CN2C[C@H](O)[C@@H](O)[C@H](O)[C@H]2C)C1` [Example 136, (2R,3R,4R,5S)-2-methyl-1-(((R)-1-(o-tolyl)piperidin-3-yl)methyl)piperidine-3,4,5-triol], the “binding specificity (IC50 or Ki of other molecule / GBA2)” value on GBA2 [1] is “enhanced binding specificity”. For the same molecule, on GBA2 [2] (setting [3]), the concentration for half-maximal inhibition (IC50) is less than 100 nM.
With `C[C@@H]1[C@@H](O)[C@H](O)[C@@H](O)CN1C[C@H]1CCCN(c2ccccc2F)C1` [Example 137, (2R,3R,4R,5S)-1-(((R)-1-(2-fluorophenyl)piperidin-3-yl)methyl)-2-methylpiperidine-3,4,5-triol], at GBA2 [1], the “binding specificity (IC50 or Ki of other molecule / GBA2)” value is “enhanced binding specificity”. Besides, the IC50 at GBA2 [2] (setting [3]) is less than 100 nM.
In the case of `C[C@@H]1[C@@H](O)[C@H](O)[C@@H](O)CN1C[C@H]1CCCN(c2ncccc2C(F)(F)F)C1` [Example 138, (2R,3R,4R,5S)-2-methyl-1-(((R)-1-(3-(trifluoromethyl)pyridin-2-yl)piperidin-3-yl)methyl)piperidine-3,4,5-triol], at GBA2 [1], the “binding specificity (IC50 or Ki of other molecule / GBA2)” value was “enhanced binding specificity”. Moreover, at GBA2 [2] (setting [3]), the IC50 is less than 100 nM.
